According to patent US20090221640A1, “Novel Crystal Modifications” (ASTRAZENECA AB, priority 2006, published 2009):
One block for each molecule: values may come before it.

Tests used:
[1] = Humidity sorption by gravimetrical vapour sorption (GVS); assay type: physicochemical
Experimental: The gravimetric responses of test samples to changes in humidity were investigated using either a SGA 100 (VTI Corporation) or a DVS 2 (Surface Measurement System) Gravimetrical Vapour Sorption (GVS) instrument with the following features: Dry to 90% RH and back in steps of, for example, 10% RH.
Equilibrium condition: <0.01 weight-% per 10 minutes (<0.001 weight-%/min)
Approximately 5 mg of the test sample was placed in the cup and evaluated.

[2] = Thermal behaviour on heating (DSC and TGA); assay type: physicochemical; conditions: below 200° C.; neither solvent loss nor any other thermal event prior to melting
Experimental: The calorimetric response of a test sample to increasing temperature was investigated using a Q1000 Modulated Temperature Differential Scanning Calorimeter (MTDSC) (TA Instruments) using different methods, the main features being:
Normally modulated mode (“heat only”) with a ramp rate of 5° C./min (but also 1 and 20° C./min were used without modulation). The temperature range was from just below ambient to above 200° C.
Approximately 2 mg of the test sample was placed in an aluminium cups with a lid (no crimping).
The gravimetric response of test samples to increasing temperatures was investigated using a Q500 Thermal Gravimetric Analyser (TGA) (TA Instruments) using the following parameters:
Heating rate (normally): 5° C./min
Approximately 2 to 5 mg of the test sample was placed in the cup and heated to just above 200° C.

[3] = Relative thermodynamic stability in suspension experiments (XRPD on precipitates); assay type: physicochemical
[4] = Solid-state storage stability (chemical and physical); assay type: physicochemical; conditions: 25° C./desiccated; 25° C./60% RH; 40° C./75% RH; examined after 2, 4, 8 and 12 weeks
Experimental: The solid-state stability of compound (I) Form G was studied under three sets of conditions: at 25° C./desiccated; at 25° C./60% RH; and at 40° C./75% RH. Samples were examined after 2, 4, 8 and 12 weeks and chemical and physical stability was evaluated.

MMP12 = MMP12 (Homo sapiens, UniProt P39900); conditions: background statement, compound of WO 02/074767; cited from earlier work
Chain of MMP12 (P39900 106-470): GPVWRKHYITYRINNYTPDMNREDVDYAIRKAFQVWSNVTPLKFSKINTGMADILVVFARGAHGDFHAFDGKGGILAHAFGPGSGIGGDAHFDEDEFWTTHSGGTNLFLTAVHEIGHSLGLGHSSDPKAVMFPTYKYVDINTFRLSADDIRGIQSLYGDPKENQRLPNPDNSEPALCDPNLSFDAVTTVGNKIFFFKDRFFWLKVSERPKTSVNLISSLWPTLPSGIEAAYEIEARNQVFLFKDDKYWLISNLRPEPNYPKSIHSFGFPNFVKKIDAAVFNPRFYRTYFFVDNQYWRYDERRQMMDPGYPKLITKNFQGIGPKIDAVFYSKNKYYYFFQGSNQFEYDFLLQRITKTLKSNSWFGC

humidity uptake ([1]; at 80% RH, GVS): < 0.05%
hygroscopicity classification ([1]; criteria defined in the European Pharmacopoeia): non-hygroscopic
thermal stability (DSC and TGA traces) [2]: thermally stable
relative thermodynamic stability among the seven crystalline modifications ([3]; temperature range investigated (5 to 40° C.)): thermodynamically most stable
solid-state chemical and physical stability [4]: chemically and physically stable
Structure (SMILES): C[C@]1(CS(=O)(=O)N2CCC(Oc3ccc(Cl)cn3)CC2)NC(=O)NC1=O [compound (I) Form G, (S)-5-[4-(5-Chloro-pyridin-2-yloxy)-piperidine-1-sulfonylmethyl]-5-methyl-imidazolidine-2,4-dione Form G]

conversion of crystal form in suspension (XRPD) ([3]; suspensions in organic solvents (ethanol, methanol, 1-propanol, 2-propanol, acetone or ethyl acetate)): complete conversion into Form G
Structure (SMILES): C[C@]1(CS(=O)(=O)N2CCC(Oc3ccc(Cl)cn3)CC2)NC(=O)NC1=O [Form A, (5S)-5-[4-(5-chloro-pyridin-2-yloxy)-piperidine-1-sulfonylmethyl]-5-methyl-imidazolidine-2,4-dione]

Structure (SMILES): C[C@]1(CS(=O)(=O)N2CCC(Oc3ccc(Cl)cn3)CC2)NC(=O)NC1=O [Compound (I), (5S)-5-[4-(5-chloro-pyridin-2-yloxy)-piperidine-1-sulfonylmethyl]-5-methyl-imidazolidine-2,4-dione]
MMP12 inhibition (in words) (MMP12): potent inhibitor of MMP12
